Test results as given in patent EP4722212A1, “NOVEL COMPOUND FOR INHIBITING PROTEIN KINASES AND PHARMACEUTICAL COMPOSITION COMPRISING SAME” (Magicbullettherapeutics Co., Ltd., priority 2023, dated 2024).
Like-named read-outs stand apart in the source and are kept apart here.

Legend:
Experiment in all cases: Kinase panel
Format in all cases: biochemical
CLK2 = CLK2 (Homo sapiens, UniProt P49760); conditions: CLK2, 1 µM; read-out: residual enzyme activity
How it was run: (§1)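 Biochemical full-panel kinase assay with compounds tested at a single concentration of 1 µM. Values are residual enzyme activity. Kinases were flagged when residual activity was 40% or less, i.e. inhibition of 60% or more.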

LKB1 = LKB1 (Homo sapiens, UniProt Q15831); conditions: LKB1, 1 µM; read-out: residual enzyme activity
How it was run: as §1

CDK16/CYCLIN Y (PCTAIRE) = CDK16/CYCLIN Y (PCTAIRE) (Homo sapiens, UniProt Q00536); conditions: read-out: residual enzyme activity
How it was run: as §1

PASK = PASK (Homo sapiens, UniProt Q96RG2); conditions: read-out: residual enzyme activity
How it was run: as §1

STK32C/YANK3 = STK32C/YANK3 (Homo sapiens, UniProt Q86UX6); conditions: STK32C/YANK3, 1 µM; read-out: residual enzyme activity
How it was run: as §1

MARK1 = MARK1 (Homo sapiens, UniProt Q9P0L2); conditions: MARK1, 1 µM; read-out: residual enzyme activity
How it was run: as §1

CDK6/CYCLIN D3 = CDK6/CYCLIN D3 (Homo sapiens, UniProt Q00534); conditions: CDK6/cyclin D3, 1 µM; read-out: residual enzyme activity
How it was run: as §1

MYO3B = MYO3B (Homo sapiens, UniProt Q8WXR4); conditions: read-out: residual enzyme activity
How it was run: as §1

NEK2 = NEK2 (Homo sapiens, UniProt P51955); conditions: NEK2, 1 µM; read-out: residual enzyme activity
How it was run: as §1

PKACG = PKACG (Homo sapiens, UniProt P22612); conditions: read-out: residual enzyme activity
How it was run: as §1

TXK = TXK (Homo sapiens, UniProt P42681); conditions: read-out: residual enzyme activity
How it was run: as §1

EPHAS = EPHAS (Homo sapiens, UniProt P54756); conditions: read-out: residual enzyme activity
How it was run: as §1

CDK4/CYCLIN D3 = CDK4/CYCLIN D3 (Homo sapiens, UniProt P11802); conditions: CDK4/cyclin D3, 1 µM; read-out: residual enzyme activity
How it was run: as §1

MRCKB/CDC42BPB = MRCKB/CDC42BPB (Homo sapiens, UniProt Q9Y5S2); conditions: read-out: residual enzyme activity
How it was run: as §1

PBK/TOPK = PBK/TOPK (Homo sapiens, UniProt Q96KB5); conditions: read-out: residual enzyme activity
How it was run: as §1

TYK2 = TYK2 (Homo sapiens, UniProt P29597); conditions: TYK2, 1 µM; read-out: residual enzyme activity
How it was run: as §1

SLK/STK2 = SLK/STK2 (Homo sapiens, UniProt Q9H2G2); conditions: SLK/STK2, 1 µM; read-out: residual enzyme activity
How it was run: as §1

JNK2 = JNK2 (Homo sapiens, UniProt P45984); conditions: read-out: residual enzyme activity
How it was run: as §1

MLK2/MAP3K10 = MLK2/MAP3K10 (Homo sapiens, UniProt Q02779); conditions: MLK2/MAP3K10, 1 µM; read-out: residual enzyme activity
How it was run: as §1

ULK1 = ULK1 (Homo sapiens, UniProt O75385); conditions: ULK1, 1 µM; read-out: residual enzyme activity
How it was run: as §1

TNK1 = TNK1 (Homo sapiens, UniProt Q13470); conditions: TNK1, 1 µM; read-out: residual enzyme activity
How it was run: as §1

SRMS = SRMS (Homo sapiens, UniProt Q9H3Y6); conditions: read-out: residual enzyme activity
How it was run: as §1

MEK3 = MEK3 (Homo sapiens, UniProt P46734); conditions: MEK3, 1 µM; read-out: residual enzyme activity
How it was run: as §1

PDGFRB = PDGFRB (Homo sapiens, UniProt P09619); conditions: read-out: residual enzyme activity
How it was run: as §1

SIK2 = SIK2 (Homo sapiens, UniProt Q9H0K1); conditions: SIK2, 1 µM; read-out: residual enzyme activity
How it was run: as §1

RIPK4 = RIPK4 (Homo sapiens, UniProt P57078); conditions: RIPK4, 1 µM; read-out: residual enzyme activity
How it was run: as §1

FLT1/VEGFR1 = FLT1/VEGFR1 (Homo sapiens, UniProt P17948); conditions: FLT1/VEGFR1, 1 µM; read-out: residual enzyme activity
How it was run: as §1

EGFR = EGFR (Homo sapiens, UniProt P00533); conditions: read-out: residual enzyme activity
How it was run: as §1

EPHA7 = EPHA7 (Homo sapiens, UniProt Q15375); conditions: EPHA7, 1 µM; read-out: residual enzyme activity
How it was run: as §1

CDC7/DBF4 = CDC7/DBF4 (Homo sapiens, UniProt O00311); conditions: CDC7/DBF4, 1 µM; read-out: residual enzyme activity
How it was run: as §1

PIM2 = PIM2 (Homo sapiens, UniProt Q9P1W9); conditions: PIM2, 1 µM; read-out: residual enzyme activity
How it was run: as §1

PKCD = PKCD (Homo sapiens, UniProt Q05655); conditions: read-out: residual enzyme activity
How it was run: as §1

CHK1 = CHK1 (Homo sapiens, UniProt O14757); conditions: CHK1, 1 µM; read-out: residual enzyme activity
How it was run: as §1

GSK3A = GSK3A (Homo sapiens, UniProt P49840); conditions: read-out: residual enzyme activity
How it was run: as §1

CDK16/CYCLIN Y (PCTAIRE), sequence (Q00536 whole entry, species assumed): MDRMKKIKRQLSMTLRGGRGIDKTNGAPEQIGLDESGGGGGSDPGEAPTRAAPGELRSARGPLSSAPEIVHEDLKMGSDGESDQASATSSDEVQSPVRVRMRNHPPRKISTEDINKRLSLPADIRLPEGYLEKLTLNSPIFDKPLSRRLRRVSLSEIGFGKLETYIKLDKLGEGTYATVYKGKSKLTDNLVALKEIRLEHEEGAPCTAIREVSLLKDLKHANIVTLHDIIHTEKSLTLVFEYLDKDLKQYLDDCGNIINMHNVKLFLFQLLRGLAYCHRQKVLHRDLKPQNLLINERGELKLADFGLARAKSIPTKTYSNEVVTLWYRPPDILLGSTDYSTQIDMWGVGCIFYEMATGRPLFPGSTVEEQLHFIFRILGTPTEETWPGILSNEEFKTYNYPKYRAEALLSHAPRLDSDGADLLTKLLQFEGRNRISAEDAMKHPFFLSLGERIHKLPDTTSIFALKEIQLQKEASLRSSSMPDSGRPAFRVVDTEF
CDK16/CYCLIN Y (PCTAIRE), sequence (Q8ND76 whole entry partner, species assumed): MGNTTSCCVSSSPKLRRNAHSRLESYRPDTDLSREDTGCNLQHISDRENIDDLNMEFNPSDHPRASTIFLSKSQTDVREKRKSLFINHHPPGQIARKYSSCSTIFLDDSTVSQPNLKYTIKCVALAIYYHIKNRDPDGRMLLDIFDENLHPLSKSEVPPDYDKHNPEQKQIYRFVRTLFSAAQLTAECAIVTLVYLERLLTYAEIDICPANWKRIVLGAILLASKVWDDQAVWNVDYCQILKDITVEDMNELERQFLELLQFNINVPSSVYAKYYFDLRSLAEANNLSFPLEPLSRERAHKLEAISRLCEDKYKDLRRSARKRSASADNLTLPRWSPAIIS
EPHA7, sequence (Q15375 28-998, species assumed): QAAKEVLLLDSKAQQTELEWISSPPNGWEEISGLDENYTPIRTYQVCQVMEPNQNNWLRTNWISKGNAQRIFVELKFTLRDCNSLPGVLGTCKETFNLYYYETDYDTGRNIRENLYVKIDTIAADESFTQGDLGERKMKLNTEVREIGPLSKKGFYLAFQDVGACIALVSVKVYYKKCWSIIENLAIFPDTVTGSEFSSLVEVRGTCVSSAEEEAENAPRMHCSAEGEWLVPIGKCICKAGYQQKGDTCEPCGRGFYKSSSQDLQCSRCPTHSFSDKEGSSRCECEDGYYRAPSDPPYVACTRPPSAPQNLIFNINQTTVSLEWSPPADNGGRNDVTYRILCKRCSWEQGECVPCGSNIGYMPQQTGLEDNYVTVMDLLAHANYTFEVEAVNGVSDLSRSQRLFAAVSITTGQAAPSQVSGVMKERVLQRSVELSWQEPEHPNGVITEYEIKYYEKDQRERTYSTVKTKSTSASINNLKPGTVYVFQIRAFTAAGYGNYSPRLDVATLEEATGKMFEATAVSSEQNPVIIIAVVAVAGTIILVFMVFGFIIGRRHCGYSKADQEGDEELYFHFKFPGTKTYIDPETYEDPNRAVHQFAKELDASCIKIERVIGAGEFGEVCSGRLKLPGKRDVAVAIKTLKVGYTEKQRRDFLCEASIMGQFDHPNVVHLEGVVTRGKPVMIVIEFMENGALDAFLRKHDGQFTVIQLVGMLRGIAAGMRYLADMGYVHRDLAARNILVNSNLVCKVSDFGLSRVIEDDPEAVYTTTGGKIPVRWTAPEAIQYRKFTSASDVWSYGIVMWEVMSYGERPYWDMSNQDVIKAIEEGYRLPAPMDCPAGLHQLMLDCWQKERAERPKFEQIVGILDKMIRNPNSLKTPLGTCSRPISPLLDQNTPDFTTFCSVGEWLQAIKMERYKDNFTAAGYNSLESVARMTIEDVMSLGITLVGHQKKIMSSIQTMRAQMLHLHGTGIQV
LKB1, sequence (Q15831 whole entry, species assumed): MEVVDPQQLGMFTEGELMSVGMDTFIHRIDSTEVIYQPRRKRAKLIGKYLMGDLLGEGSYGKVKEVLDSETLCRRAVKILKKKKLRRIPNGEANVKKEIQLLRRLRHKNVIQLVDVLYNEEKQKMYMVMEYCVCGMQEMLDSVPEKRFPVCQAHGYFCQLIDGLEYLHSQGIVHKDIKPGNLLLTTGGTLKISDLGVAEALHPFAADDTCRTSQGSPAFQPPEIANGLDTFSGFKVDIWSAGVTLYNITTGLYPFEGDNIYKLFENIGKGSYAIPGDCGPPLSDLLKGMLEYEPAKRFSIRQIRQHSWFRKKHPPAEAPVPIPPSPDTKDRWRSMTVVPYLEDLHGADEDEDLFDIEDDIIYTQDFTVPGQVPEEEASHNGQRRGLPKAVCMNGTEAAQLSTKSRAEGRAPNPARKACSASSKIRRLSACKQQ
LKB1, sequence (Q7RTN6 whole entry partner, species assumed): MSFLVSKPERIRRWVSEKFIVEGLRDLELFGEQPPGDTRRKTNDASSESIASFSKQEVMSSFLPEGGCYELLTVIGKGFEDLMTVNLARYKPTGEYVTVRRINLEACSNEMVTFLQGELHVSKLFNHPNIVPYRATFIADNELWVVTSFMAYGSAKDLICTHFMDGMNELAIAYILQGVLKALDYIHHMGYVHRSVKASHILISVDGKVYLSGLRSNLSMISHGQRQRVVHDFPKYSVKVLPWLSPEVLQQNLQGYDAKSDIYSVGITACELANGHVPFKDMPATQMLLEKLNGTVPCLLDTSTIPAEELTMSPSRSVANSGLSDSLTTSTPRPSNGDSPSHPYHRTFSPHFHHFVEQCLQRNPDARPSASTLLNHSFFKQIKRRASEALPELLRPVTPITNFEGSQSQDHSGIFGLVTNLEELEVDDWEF
LKB1, sequence (Q9Y376 whole entry partner, species assumed): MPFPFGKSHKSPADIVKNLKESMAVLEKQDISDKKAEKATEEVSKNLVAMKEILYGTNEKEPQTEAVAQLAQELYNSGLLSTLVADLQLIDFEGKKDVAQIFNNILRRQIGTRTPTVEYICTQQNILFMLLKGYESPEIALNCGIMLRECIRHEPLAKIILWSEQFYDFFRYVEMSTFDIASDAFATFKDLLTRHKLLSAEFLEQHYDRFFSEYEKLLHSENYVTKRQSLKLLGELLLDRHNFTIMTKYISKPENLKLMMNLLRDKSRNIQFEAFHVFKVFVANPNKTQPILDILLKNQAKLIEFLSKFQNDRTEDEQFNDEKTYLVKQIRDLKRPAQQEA
CDC7/DBF4, sequence (O00311 whole entry, species assumed): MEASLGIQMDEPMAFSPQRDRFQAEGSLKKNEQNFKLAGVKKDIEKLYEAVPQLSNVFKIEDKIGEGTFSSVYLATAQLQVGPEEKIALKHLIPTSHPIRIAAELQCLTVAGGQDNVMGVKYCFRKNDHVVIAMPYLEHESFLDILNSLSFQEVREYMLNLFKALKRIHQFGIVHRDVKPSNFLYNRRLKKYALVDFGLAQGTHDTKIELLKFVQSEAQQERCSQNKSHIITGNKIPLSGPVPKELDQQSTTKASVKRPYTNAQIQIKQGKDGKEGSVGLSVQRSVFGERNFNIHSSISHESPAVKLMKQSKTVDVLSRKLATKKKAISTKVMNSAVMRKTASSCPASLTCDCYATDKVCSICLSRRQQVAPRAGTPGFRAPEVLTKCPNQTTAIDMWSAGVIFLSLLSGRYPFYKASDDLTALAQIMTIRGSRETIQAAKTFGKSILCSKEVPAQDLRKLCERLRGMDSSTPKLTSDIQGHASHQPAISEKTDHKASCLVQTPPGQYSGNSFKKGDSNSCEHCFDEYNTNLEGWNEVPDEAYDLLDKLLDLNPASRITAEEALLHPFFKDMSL
CDC7/DBF4, sequence (Q9UBU7 whole entry partner, species assumed): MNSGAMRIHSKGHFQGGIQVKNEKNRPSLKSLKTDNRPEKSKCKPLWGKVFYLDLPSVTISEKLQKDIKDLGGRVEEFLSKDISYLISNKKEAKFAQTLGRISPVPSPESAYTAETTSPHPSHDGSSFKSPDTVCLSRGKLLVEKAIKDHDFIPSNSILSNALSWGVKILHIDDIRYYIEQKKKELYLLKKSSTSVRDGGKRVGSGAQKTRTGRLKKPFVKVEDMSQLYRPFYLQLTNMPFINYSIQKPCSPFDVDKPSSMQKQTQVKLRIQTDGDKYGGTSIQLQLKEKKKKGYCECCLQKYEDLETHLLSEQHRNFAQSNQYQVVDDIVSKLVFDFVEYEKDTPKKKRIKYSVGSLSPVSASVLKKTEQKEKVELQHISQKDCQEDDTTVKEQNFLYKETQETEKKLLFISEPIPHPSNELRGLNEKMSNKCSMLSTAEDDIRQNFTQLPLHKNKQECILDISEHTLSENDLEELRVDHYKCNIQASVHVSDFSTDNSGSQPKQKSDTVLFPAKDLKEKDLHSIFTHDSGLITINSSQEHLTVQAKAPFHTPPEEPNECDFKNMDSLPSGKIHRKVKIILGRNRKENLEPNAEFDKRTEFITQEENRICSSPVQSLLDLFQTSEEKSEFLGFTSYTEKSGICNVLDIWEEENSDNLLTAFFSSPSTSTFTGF
CDK6/CYCLIN D3, sequence (Q00534 whole entry, species assumed): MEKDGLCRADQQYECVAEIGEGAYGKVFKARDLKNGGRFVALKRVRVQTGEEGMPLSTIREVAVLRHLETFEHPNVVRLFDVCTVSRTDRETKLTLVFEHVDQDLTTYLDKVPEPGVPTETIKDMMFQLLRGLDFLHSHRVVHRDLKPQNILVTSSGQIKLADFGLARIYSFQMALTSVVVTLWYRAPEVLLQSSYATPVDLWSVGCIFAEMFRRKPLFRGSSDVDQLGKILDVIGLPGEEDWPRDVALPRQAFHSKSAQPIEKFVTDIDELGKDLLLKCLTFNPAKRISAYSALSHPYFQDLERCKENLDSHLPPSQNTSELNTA
CDK6/CYCLIN D3, sequence (P30281 whole entry partner, species assumed): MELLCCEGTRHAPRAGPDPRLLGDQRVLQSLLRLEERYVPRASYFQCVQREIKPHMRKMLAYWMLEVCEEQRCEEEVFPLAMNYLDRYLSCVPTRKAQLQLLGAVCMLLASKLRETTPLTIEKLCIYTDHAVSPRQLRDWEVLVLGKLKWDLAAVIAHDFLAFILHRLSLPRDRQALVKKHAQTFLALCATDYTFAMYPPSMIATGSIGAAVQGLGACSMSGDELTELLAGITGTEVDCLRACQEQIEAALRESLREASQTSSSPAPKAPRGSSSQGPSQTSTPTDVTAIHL

Row | Compound | remaining activity at 1 µM (CLK2) [%] | remaining activity at 1 µM (LKB1) [%] | remaining activity at 1 µM (CDK16/CYCLIN Y (PCTAIRE)) [%] | remaining activity at 1 µM (PASK) [%] | remaining activity at 1 µM (STK32C/YANK3) [%] | remaining activity at 1 µM (MARK1) [%] | remaining activity at 1 µM (CDK6/CYCLIN D3) [%] | remaining activity at 1 µM (NEK2) [%] | remaining activity at 1 µM (PKACG) [%] | remaining activity at 1 µM (TXK) [%] | remaining activity at 1 µM (CDK4/CYCLIN D3) [%] | remaining activity at 1 µM (MRCKB/CDC42BPB) [%] | remaining activity at 1 µM (PBK/TOPK) [%] | remaining activity at 1 µM (TYK2) [%] | remaining activity at 1 µM (SLK/STK2) [%] | remaining activity at 1 µM (MLK2/MAP3K10) [%] | remaining activity at 1 µM (ULK1) [%] | remaining activity at 1 µM (TNK1) [%] | remaining activity at 1 µM (SRMS) [%] | remaining activity at 1 µM (MEK3) [%] | also measured
1 | Cc1cn(-c2cc(C(=O)Nc3ccc(C)c(N4Cc5cnc(NC6CC6)nc5C5(CC5)C4=O)c3)cc(C(F)(F)F)c2)cn1 [Compound 8, N-(3-(2'-(cyclopropylamino)-7'-oxo-5'H-spiro[cyclopropane-1,8'-pyrido[4,3-d]pyrimidine]-6'(7'H)-yl)-4-methylphenyl)-3-(4-methyl-1H-imidazol-1-yl)-5-(trifluoromethyl)benzamide] | > 40 | > 40 | > 40 | > 40 | > 40 | > 40 | > 40 | > 40 | ≤ 40 | ≤ 40 | > 40 | > 40 | > 40 | ≤ 40 | ≤ 40 | > 40 | > 40 | ≤ 40 | ≤ 40 | > 40 | remaining activity at 1 µM (MYO3B; MYO3B): > 40%; remaining activity at 1 µM (EPHAS; EPHAS (row 107), 1 µM): ≤ 40%; remaining activity at 1 µM (JNK2; JNK2, 1 µM): > 40%; remaining activity at 1 µM (PDGFRB): ≤ 40%; remaining activity at 1 µM (SIK2): > 40%; remaining activity at 1 µM (RIPK4): > 40%; remaining activity at 1 µM (FLT1/VEGFR1): ≤ 40%; remaining activity at 1 µM (EGFR): ≤ 40%; remaining activity at 1 µM (EPHA7): ≤ 40%; remaining activity at 1 µM (CDC7/DBF4): > 40%; remaining activity at 1 µM (PIM2): > 40%; remaining activity at 1 µM (PKCD): > 40%; remaining activity at 1 µM (CHK1): > 40%; remaining activity at 1 µM (GSK3A; GSK3A): > 40%
2 | Cc1ccc(Nc2ncc3c(n2)C2(CC2)C(=O)N(c2cc(NC(=O)c4cccc(C(F)(F)F)c4)ccc2C)C3)cn1 [Compound 51, N-(4-methyl-3-(2'-((6-methylpyridin-3-yl)amino)-7'-oxo-5'H-spiro[cyclopropane-1,8'-pyrido[4,3-d]pyrimidine]-6'(7'H)-yl)phenyl)-3-(trifluoromethyl)benzamide] | > 40 | > 40 | > 40 | > 40 | > 40 | > 40 | > 40 | > 40 | ≤ 40 | ≤ 40 | > 40 | > 40 | > 40 | ≤ 40 | ≤ 40 | ≤ 40 | > 40 | ≤ 40 | ≤ 40 | > 40 | remaining activity at 1 µM (MYO3B; MYO3b): > 40%; remaining activity at 1 µM (EPHAS; EPHA5, 1 µM): ≤ 40%; remaining activity at 1 µM (JNK2; INK2, 1 µM): ≤ 40%; remaining activity at 1 µM (PDGFRB): ≤ 40%; remaining activity at 1 µM (SIK2): ≤ 40%; remaining activity at 1 µM (RIPK4): > 40%; remaining activity at 1 µM (FLT1/VEGFR1): ≤ 40%; remaining activity at 1 µM (EGFR): ≤ 40%; remaining activity at 1 µM (EPHA7): ≤ 40%; remaining activity at 1 µM (CDC7/DBF4): > 40%; remaining activity at 1 µM (PIM2): > 40%; remaining activity at 1 µM (PKCD): > 40%; remaining activity at 1 µM (CHK1): > 40%; remaining activity at 1 µM (GSK3A; GSK3a): > 40%
